Key:
Format in all cases: in vivo, C57BL/6 mice
[1] = test system: preferentially upregulated genes in LV, SP, LN; assay: Z-score-based differential gene expression analysis (adjuvant group- or adjuvant-associated genes, 40 module mapping, TargetMine annotation)
Summary of the method: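 Per-sample fold-change values converted to gene-wise z-scores within each organ's data set, then triplicate z-scores summed per adjuvant. Genes with summed score >3 taken as preferentially expressed; gene groups defined by combined per-adjuvant z-score thresholds (z>1 to z>3) specific to each organ.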

[2] = test system: inguinal lymph nodes (LN); assay: Whole organ transcriptome (GeneChip microarray) of draining inguinal lymph nodes 6 h after adjuvant administration: sDEGs, gene modules, hierarchical clustering; on adjuvant group (cluster) in LN: key: G1 (interferon signaling); G2 (metabolism of lipids and lipoproteins); G3 (response to stress); G4 (response to wounding); G5 (phosphate-containing compound metabolic process); G6 (phagosome)
[3] = test system: spleen (SP); assay: Whole organ transcriptome (GeneChip microarray) of spleen 6 h after adjuvant administration: sDEGs, hierarchical clustering; details: for Number of gene probes with statistically significant changes (sDEGs), SP, Down: fold change <0.667, p<0.01, customized PA call=1, 6 h after adjuvant; for Number of gene probes with statistically significant changes (sDEGs), SP, Up: fold change >1.5, p<0.01, customized PA call=1, 6 h after adjuvant
[4] = liver (LV), gene group G1, module 20, individual mice x1-x3, route ID/IP/IN

In the case of “K3: B class CpG ODN (ATCGACTCTCGAGCGTTCTC), TLR9 ligand (chemistry not given here)”, the “Ifit1 1450783_at (Group G1, Modules 20)” value ([1]; IP, LV, sample x3) is reported as −0.5, the “Ifit3 1449025_at (Group G1, Modules 20)” value ([1]; IP, LV, sample x3) is reported as −0.5 and the “Irf7 1417244_a_at (Group G1, Modules 20)” value ([1]; IP, LV, sample x3) is reported as −0.5. The “Irgm1 1418825_at (Group G1, Modules 20)” value ([1]; IP, LV, sample x3) was −0.6, the “Mndal 1426906_at (Group G1, Modules 20)” value ([1]; IP, LV, sample x3) was −0.4 and the “Pml 1448757_at (Group G1, Modules 20)” value ([1]; IP, LV, sample x3) was −0.6. The “Pml 1456103_at (Group G1, Modules 20)” value ([1]; IP, LV, sample x3) was −0.6, the “Rnf213 1455500_at (Group G1, Modules 20)” value ([1]; IP, LV, sample x3) was −0.5 and the “Rsad2 1436058_at (Group G1, Modules 20)” value ([1]; IP, LV, sample x3) was −0.5. For the same substance, the “Shisa5 1423986_a_at (Group G1, Modules 20)” value ([1]; IP, LV, sample x3) was −0.8, the “Shisa5 1437503_a_at (Group G1, Modules 20)” value ([1]; IP, LV, sample x3) was −0.6 and the “Stat1 1450033_a_at (Group G1, Modules 20)” value ([1]; IP, LV, sample x3) was −0.5. The “Stat1 1450034_at (Group G1, Modules 20)” value ([1]; IP, LV, sample x3) was −0.6, the “Tdrd7 1426716_at (Group G1, Modules 20)” value ([1]; IP, LV, sample x3) was −0.3 and the “Tor1aip2 1418115_s_at (Group G1, Modules 20)” value ([1]; IP, LV, sample x3) was −0.2. For the same substance, the “Tor1aip2 1418116_at (Group G1, Modules 20)” value ([1]; IP, LV, sample x3) was −0.2, the “Tor1aip2 1435526_at (Group G1, Modules 20)” value ([1]; IP, LV, sample x3) was −0.5 and the “Trim12a 1437432_a_at (Group G1, Modules 20)” value ([1]; IP, LV, sample x3) was −0.5. For the same substance, the “Uba7 1426970_a_at (Group G1, Modules 20)” value ([1]; IP, LV, sample x3) was −0.3, the “preferentially induced biological process relative to adjuvants targeting the same receptor” value ([1]; LN, z-scores and 40 module mapping) was “preferentially induced RNA biogenesis” and the “Z score of gene expression, Adar (probe 1425405_a_at)” value [1, 4] was −0.5. For the same substance, the “Z score of gene expression, Adar (probe 1434268_at)” value [1, 4] was −0.1, the “Z score of gene expression, Ddx58 (probe 1436562_at)” value [1, 4] was −0.5 and the “Z score of gene expression, Ddx58 (probe 1456890_at)” value [1, 4] was −0.6. The “Z score of gene expression, Eif2ak2 (probe 1422005_at)” value [1, 4] was −0.5, the “Z score of gene expression, G3bp2 (probe 1421323_a_at)” value [1, 4] was −0.5 and the “Z score of gene expression, Gm9706///Isg15 (probe 1431591_s_at)” value [1, 4] was −0.5. The “Z score of gene expression, H2-T10///H2-T22///H2-T9 (probe 1449875_s_at)” value [1, 4] was −0.7, the “Z score of gene expression, Ifih1 (probe 1426276_at)” value [1, 4] was −0.5 and the “Z score of gene expression, Ifit1 (probe 1449025_at)” value [1, 4] was −0.5. For the same substance, the “Z score of gene expression, Ifit1 (probe 1450783_at)” value [1, 4] was −0.5, the “Z score of gene expression, Irf7 (probe 1417244_a_at)” value [1, 4] was −0.4 and the “Z score of gene expression, Irgm1 (probe 1418825_at)” value [1, 4] was −0.5. The “Z score of gene expression, Mndal (probe 1426906_at)” value [1, 4] was −0.5, the “Z score of gene expression, Pml (probe 1448757_at)” value [1, 4] was −0.5 and the “Z score of gene expression, Pml (probe 1456103_at)” value [1, 4] was −0.6. The “Z score of gene expression, Rnf213 (probe 1455500_at)” value [1, 4] was −0.5, the “Z score of gene expression, Rsad2 (probe 1436058_at)” value [1, 4] was −0.5 and the “Z score of gene expression, Shisa5 (probe 1423986_a_at)” value [1, 4] was −0.5. For the same substance, the “Z score of gene expression, Shisa5 (probe 1437503_a_at)” value [1, 4] was −0.5, the “Z score of gene expression, Stat1 (probe 1450033_a_at)” value [1, 4] was −0.5 and the “Z score of gene expression, Stat1 (probe 1450034_at)” value [1, 4] was −0.5. For the same substance, the “Z score of gene expression, Tdrd7 (probe 1426716_at)” value [1, 4] was −0.6, the “Z score of gene expression, Tor1aip2 (probe 1418115_s_at)” value [1, 4] was −0.1 and the “Z score of gene expression, Tor1aip2 (probe 1418116_at)” value [1, 4] was −0.1. The “Z score of gene expression, Tor1aip2 (probe 1435526_at)” value [1, 4] was −0.1, the “Z score of gene expression, Trim12a (probe 1437432_a_at)” value [1, 4] was −0.4 and the “Z score of gene expression, Uba7 (probe 1426970_a_at)” value [1, 4] was −0.4. For the same substance, the “genes in module 16 of the LNs (M16^LN), phagosome-related, macrophage-associated” value ([2]; LN, 6 h) was “upregulated”, the “module M15^LN (immune system process, T cell associated)” value ([2]; LN, 6 h) was “weakly induced” and the “adjuvant group (cluster) in LN” value ([2]; hierarchical clustering, lymph node) was “G5”. The “Number of gene probes with statistically significant changes (sDEGs), LN, Down” value ([2]; i.d. administration, lymph node, fold change <0.667, p<0.01, customized PA call=1, 6 h after adjuvant) was 18, the “Number of gene probes with statistically significant changes (sDEGs), LN, Up” value ([2]; i.d. administration, lymph node, fold change >1.5, p<0.01, customized PA call=1, 6 h after adjuvant) was 53 and the “Number of gene probes with statistically significant changes (sDEGs), SP, Down” value ([3]; i.d. administration) was 18. For the same substance, the “Number of gene probes with statistically significant changes (sDEGs), SP, Up” value ([3]; i.d. administration) was 11, the “Number of gene probes with statistically significant changes (sDEGs), SP, Down” value ([3]; i.p. administration) was 10 and the “Number of gene probes with statistically significant changes (sDEGs), SP, Up” value ([3]; i.p. administration) was 24.

From patent publication US20230021483A1, “[…] […] METHOD AND CLASSIFICATION OF PHARMACEUTICAL COMPONENTS BY USING TRANSCRIPTOMES” (National Institutes of Biomedical Innovation, Health and …, priority 2016, published 2023)
